Assays:
[1] = cited from earlier work
[2] = cited from earlier work; remark: listed apart in the source
C57BL ksj (db/db) = details: hereditary obese diabetic mouse C57BL ksj (db/db); cited from earlier work
ICR male mice [3] = assay: Fat accumulation in ICR mice fed 13 weeks; format: in vivo, mouse; details: liver and epididymal adipose tissue
From the text: Thirty 5-week-old ICR male mice were randomly classified into three group of ten mice, and mouse standard diet CE-2 (a product of Japan CLEA Co., Ltd.) was given to the first group, and diet CE-2 containing 0.1% of 4-O-methylascochlorin diethylacetal (MAC-DE) was given to the second group and diet CE-2 containing 0.05% of MAC-DE was given to the third group and the mice were continued to be fed. […] After 13 weeks, the liver and the epididymal adipose tissue were removed from the mice and lipid was extracted by the Folch method and the triglyceride content was determined. As a result, the triglyceride content in the 0.05% MAC-DE group was reduced 27%, and the triglyceride content in the 0.1% MAC-DE group was reduced 35%. From this fact it would be understood that MAC-DE inhibits fat accumulation.

ICR male mice [4] = assay: Mouse serum cholesterol lowering action; format: in vivo; details: one week; for Total Cholesterol in Serum: ICR mice; for Rate of Change (total cholesterol in serum): vs control
Description: Thirty 5-week-old ICR male mice were bred by allowing mouse standard feed and water ad libitum. The mice were randomly classified into three groups, and one group was taken as a control group to which no drug was administered, and feed containing 0.1% of 4-O-methylasco-chlorin diethylacetal (MAC-DEA) and feed containing 0.05% of MAC-DEA were given to the other two groups, respectively. The body weight, the intake of feed and the amount of drinking water were measured every other day. One week after giving feed, blood was collected and the total cholesterol in serum and the neutral fat were determined.

[5] = tested on: Ehrlich ascites carcinoma; assay: Inhibition of Ehrlich solid tumor; format: in vivo, mouse; details: 7 days, 21st day
Description: Eighteen five-week-old ICR male mice were subcutaneously inoculated with 10^6 cells of Ehrlich ascites carcinoma […] and after 24 hours, and the mice were classified into three groups of six mice, and 4-O-methylascochlorin diethylacetal (MAC-DE) was suspended in 0.2% Tween-80 and 1 mg/kg and 4 mg/kg were orally administered to the first group and the second group twice a day at 9:00 and 20:00, respectively, and a MAC-DE-free Tween-80 aqueous solution was given to the third group as a control group. The administration was continued for successive 7 days and after completion of the administration, the mice were fed for two weeks. On the 21st day, a nodular tumor was removed from the mice and the body weight was determined and the effect of MAC-DE on the inhibition of tumor growth was examined.

ddY male mice = assay: Internal fat accumulation in ddY mice fed 13 weeks; format: in vivo, mouse; details: livers and epididymal adipose tissues
From the text: Thirty 5-week-old ddY male mice were randomly classified into three groups of ten mice and fed for 13 weeks by allowing feed and water ad libidum. Meanwhile, the mouse standard diet CE-2 (a product of Japan CLEA Co., Ltd.) was given to the first group, and diet CE-2 containing 0.1% of 4-O-methylascochlorin diethylacetal (MAC-DE) was given to the second group of mice and diet CE-2 containing 0.05% of MAC-DE was given to the third group. […] After 13 weeks, the livers and the epididymal adipose tissues were removed from the mice and lipid was extracted by the Folch method and the triglyceride content was determined. As a result, the triglyceride content in the 0.05% MAC-DE group was reduced 27%, and the neutral fat content in the 0.1% MAC-DE group was reduced 35%. From this fact it would be understood that MAC-DE inhibits internal fat accumulation.

db/db mice = assay: Action of MAC-DEA on db/db mouse; format: in vivo; details: for Blood Sugar / Serum Insulin / Serum Neutral Fat: db/db mice
Description: Eighteen 7-week-old male db/db mice were bred for one week by allowing mouse standard feed and water ad libitum. The mice were randomly classified into three groups of six mice and each group was housed in a urine collection rat cage and the intake of feed, the amount of drinking water, the amount of urine and the amount of urine sugar excreted were determined everyday. Feed CE-2 was given to the first group as a control group, and feed CE-2 mixed with 0.05% of 4-O-methylascochlorin diethylacetal (MAC-DEA) and feed CE-2 mixed with 0.1% of MAC-DEA were given to the second group and the third group, respectively. The mice were allowed feed and drinking water ad libitum and on the 7th day, blood was collected and the blood sugar, the serum neutral fat and the serum insulin were determined.

ICR male mice [6] = assay: Syngeneic Langerhans islet transplanted streptozotocin diabetic mouse; format: in vivo
Description: Thirty 5-week-old ICR male mice were randomly classified into six groups and all mice were fed for one week by allowing mouse standard diet CE-2 (a product of Japan CLEA Co., Ltd.). Then, the mice in the first to third groups were intravenously injected with 50 mg/kg of streptozotocin and after one week, blood was collected from the orbit and the blood sugar and the serum insulin were determined to confirm the onset of insulin-dependent diabetes. Ten days after the streptozotocin injection, pancreatic Langerhans islets were removed from the age-matched normal mice in the fourth to sixth groups and 20 pancreatic Langerhans islets were subcutaneously transplanted in the back of each of the diabetic mice. Immediately after transplantation, diet CE-2 containing 0.1% of MAC-DE was given to the first group, diet CE-2 containing 0.05% of MAC-DE was given to the second group and CE-2 was given to the third group. The diabetic mice were further fed for 60 days, and blood was collected from the orbit and the blood sugar and the serum insulin were determined every 15 days.

COc1c(Cl)c(C)c(C=O)c(O)c1C/C=C(C)/C=C/[C@@]1(C)[C@H](C)CCC(=O)[C@@H]1C [MAC, 4-O-Methylascochlorin]
bioavailability ([1]; oral, animals): very poor bioavailability | solubility in water [2]: less than 0.7 μg/ml

CC(C=CC1(C)C(C)CCC(=O)C1C)=CCc1c(O)c(C=O)c(C)c(Cl)c1OCC(=O)O (centres unmarked) [AS-6, 4-O-carboxymethylasco-chlorin]
carbohydrate metabolism (C57BL ksj (db/db)): improves in the carbohydrate metabolism | toxicity to the liver ([1]; oral, blood concentration quickly rises): the toxicity to the liver is easily exhibited | excretion ([1]; orally administered to an animal): quickly excreted | soluble in water at a concentration ([2]; pH of 7.2 to 7.7 in the small intestine): ≥ 6%

CCOC(OCC)c1c(C)c(Cl)c(OC)c(C/C=C(C)/C=C/[C@@]2(C)[C@H](C)CCC(=O)[C@@H]2C)c1O [MAC-DEA, 4-O-methylascochlorin diethylacetal]
triglyceride content, reduction (ICR male mice [3]; 0.05% in diet): 27% | triglyceride content, reduction (ICR male mice [3]; 0.1% in diet): 35% | Total Cholesterol in Serum (ICR male mice [4]; 0.05% in feed): 97 mg/dL | Rate of Change (total cholesterol in serum) (ICR male mice [4]; 0.05% in feed): −17.8% | Total Cholesterol in Serum (ICR male mice [4]; 0.1% in feed): 90 mg/dL | Rate of Change (total cholesterol in serum) (ICR male mice [4]; 0.1% in feed): −23.7% | Inhibition Ratio (tumor) ([5]; 1 mg/kg oral twice a day): 81% | Weight of Tumor ([5]; 1 mg/kg oral twice a day): 0.25 g/mouse | Inhibition Ratio (tumor) ([5]; 4 mg/kg oral twice a day): 96% | Weight of Tumor ([5]; 4 mg/kg oral twice a day): 0.06 g/mouse | triglyceride content, reduction (ddY male mice; 0.05% in diet): 27% | neutral fat content, reduction (ddY male mice; 0.1% in diet): 35% | Blood Sugar (db/db mice; 0.05% in feed CE-2, 7th day): 273 mg/dL | Serum Insulin (db/db mice; 0.05% in feed CE-2, 7th day): 175 ·U/ml | Serum Neutral Fat (db/db mice; 0.05% in feed CE-2, 7th day): 259 mg/dL | Amount of Drinking Water (db/db mice; 0.05% in feed CE-2, db/db mice): 5.4 ml/mouse | Amount of Urine (db/db mice; 0.05% in feed CE-2, db/db mice): 2.5 ml/mouse | Amount of Urine Sugar Excreted (db/db mice; 0.05% in feed CE-2, db/db mice): 47 mg/dL | Blood Sugar (db/db mice; 0.1% in feed CE-2, 7th day): 239 mg/dL | Serum Insulin (db/db mice; 0.1% in feed CE-2, 7th day): 132 ·U/ml | Serum Neutral Fat (db/db mice; 0.1% in feed CE-2, 7th day): 248 mg/dL | Amount of Drinking Water (db/db mice; 0.1% in feed CE-2, db/db mice): 3.2 ml/mouse | Amount of Urine (db/db mice; 0.1% in feed CE-2, db/db mice): 1.7 ml/mouse | Amount of Urine Sugar Excreted (db/db mice; 0.1% in feed CE-2, db/db mice): 10 mg/dL | Blood Sugar (ICR male mice [6]; 0.05% in diet CE-2, Day 0): 566 mg/dL | Insulin (ICR male mice [6]; 0.05% in diet CE-2, Day 0): <2 ·U/ml | Blood Sugar (ICR male mice [6]; 0.05% in diet CE-2, Day 15): 143 mg/dL | Insulin (ICR male mice [6]; 0.05% in diet CE-2, Day 15): 5 ·U/ml | Blood Sugar (ICR male mice [6]; 0.05% in diet CE-2, Day 30): 148 mg/dL | Insulin (ICR male mice [6]; 0.05% in diet CE-2, Day 30): 5 ·U/ml | Blood Sugar (ICR male mice [6]; 0.05% in diet CE-2, Day 45): 125 mg/dL | Insulin (ICR male mice [6]; 0.05% in diet CE-2, Day 45): 6 ·U/ml | Blood Sugar (ICR male mice [6]; 0.05% in diet CE-2, Day 60): 118 mg/dL | Insulin (ICR male mice [6]; 0.05% in diet CE-2, Day 60): 6 ·U/ml | Blood Sugar (ICR male mice [6]; 0.1% in diet CE-2, Day 0): 583 mg/dL | Insulin (ICR male mice [6]; 0.1% in diet CE-2, Day 0): <2 ·U/ml | Blood Sugar (ICR male mice [6]; 0.1% in diet CE-2, Day 15): 121 mg/dL | Insulin (ICR male mice [6]; 0.1% in diet CE-2, Day 15): 5 ·U/ml | Blood Sugar (ICR male mice [6]; 0.1% in diet CE-2, Day 30): 118 mg/dL | Insulin (ICR male mice [6]; 0.1% in diet CE-2, Day 30): 6 ·U/ml | Blood Sugar (ICR male mice [6]; 0.1% in diet CE-2, Day 45): 119 mg/dL | Insulin (ICR male mice [6]; 0.1% in diet CE-2, Day 45): 6 ·U/ml | Blood Sugar (ICR male mice [6]; 0.1% in diet CE-2, Day 60): 131 mg/dL | Insulin (ICR male mice [6]; 0.1% in diet CE-2, Day 60): 6 ·U/ml
